Results reported in PubChem BioAssay AID1963451 (Molecular Pharmacology Branch, DTP, NCI, 2024).

System: 521955-158-R6-J3-PDC complex spheroid growth, % test/control
Test: Anticancer human tumor 521955-158-R6-J3-PDC patient-derived pancreatic carcinoma cell line growth inhibition [Asc]
Conditions: for IC50: curve of first compound; for viability, T/C: stronger effect = lower value
Summary of the method: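 Complex spheroids combining tumor cells with HUVEC endothelial cells and human MSCs, at 37 degrees C, 5% CO2; agents tested alone or combined, half-log dilutions from at or near clinical Cmax, or 10 microM if Cmax unknown.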

[1] = second compound 0.0316 µM, first compound 0.00316 µM
[2] = second compound 0.0316 µM, first compound 0.01 µM
[3] = second compound 0.0316 µM, first compound 0.0316 µM
[4] = second compound 0.0316 µM, first compound 0.1 µM
[5] = second compound 0.1 µM, first compound 0.00316 µM
[6] = second compound 0.1 µM, first compound 0.01 µM
[7] = second compound 0.1 µM, first compound 0.0316 µM
[8] = second compound 0.1 µM, first compound 0.1 µM
[9] = second compound 0.316 µM, first compound 0.00316 µM
[10] = second compound 0.316 µM, first compound 0.01 µM
[11] = second compound 0.316 µM, first compound 0.0316 µM
[12] = second compound 0.316 µM, first compound 0.1 µM
[13] = second compound 1 µM, first compound 0.00316 µM
[14] = second compound 1 µM, first compound 0.01 µM
[15] = second compound 1 µM, first compound 0.0316 µM
[16] = second compound 1 µM, first compound 0.1 µM
[17] = second compound 3.16 µM, first compound 0.00316 µM
[18] = second compound 3.16 µM, first compound 0.01 µM
[19] = second compound 3.16 µM, first compound 0.0316 µM
[20] = second compound 3.16 µM, first compound 0.1 µM
[21] = second compound 10 µM, first compound 0.00316 µM
[22] = second compound 10 µM, first compound 0.01 µM
[23] = second compound 10 µM, first compound 0.0316 µM
[24] = second compound 10 µM, first compound 0.1 µM
[25] = second compound 0.0316 µM, first compound 0.316 µM
[26] = second compound 0.0316 µM, first compound 1 µM
[27] = second compound 0.1 µM, first compound 0.316 µM
[28] = second compound 0.1 µM, first compound 1 µM
[29] = second compound 0.316 µM, first compound 0.316 µM
[30] = second compound 0.316 µM, first compound 1 µM
[31] = second compound 1 µM, first compound 0.316 µM
[32] = second compound 1 µM, first compound 1 µM
[33] = second compound 3.16 µM, first compound 0.316 µM
[34] = second compound 3.16 µM, first compound 1 µM
[35] = second compound 10 µM, first compound 0.316 µM
[36] = second compound 10 µM, first compound 1 µM
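Note: spheroids exposed to compounds for 7 days.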
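Throughout, for viability, T/C: 100% = DMSO vehicle control wells.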

Cn1ncnc1[C@H]1c2n[nH]c(=O)c3cc(F)cc(c23)N[C@@H]1c1ccc(F)cc1 + Cc1c(S(C)(=O)=O)c(-c2cc(F)cc(N3CCN(c4ccc(NS(=O)(=O)c5ccc(NC(CCN6CCC(C(=O)OCCCP(=O)(O)O)CC6)CSc6ccccc6)c(S(=O)(=O)C(F)(F)F)c5)cc4)CC3)c2)c(-c2ccc(Cl)cc2)n1C(C)C
IC50 (second compound 0.0316 µM): > 100 nM | IC50 (second compound 0.1 µM): > 100 nM | IC50 (second compound 0.316 µM): 4.81 nM | IC50 (second compound 1 µM): < 0.316 nM | IC50 (second compound 3.16 µM): < 0.316 nM | IC50 (second compound 10 µM): < 0.316 nM | viability, T/C (second compound 0.0316 µM, first compound 0.000316 µM): 84.8% | viability, T/C (second compound 0.0316 µM, first compound 0.001 µM): 92.7% | viability, T/C [1]: 70.5% | viability, T/C [2]: 82% | viability, T/C [3]: 77% | viability, T/C [4]: 68.9% | viability, T/C (second compound 0.1 µM, first compound 0.000316 µM): 86.3% | viability, T/C (second compound 0.1 µM, first compound 0.001 µM): 75.1% | viability, T/C [5]: 75.3% | viability, T/C [6]: 82.3% | viability, T/C [7]: 61% | viability, T/C [8]: 67.6% | viability, T/C (second compound 0.316 µM, first compound 0.000316 µM): 53.4% | viability, T/C (second compound 0.316 µM, first compound 0.001 µM): 54.2% | viability, T/C [9]: 52.5% | viability, T/C [10]: 44.4% | viability, T/C [11]: 40.8% | viability, T/C [12]: 51.5% | viability, T/C (second compound 1 µM, first compound 0.000316 µM): 35.1% | viability, T/C (second compound 1 µM, first compound 0.001 µM): 32.7% | viability, T/C [13]: 41.4% | viability, T/C [14]: 29.8% | viability, T/C [15]: 35% | viability, T/C [16]: 40.9% | viability, T/C (second compound 3.16 µM, first compound 0.000316 µM): 23% | viability, T/C (second compound 3.16 µM, first compound 0.001 µM): 24.3% | viability, T/C [17]: 21.1% | viability, T/C [18]: 19.9% | viability, T/C [19]: 20.8% | viability, T/C [20]: 16.4% | viability, T/C (second compound 10 µM, first compound 0.000316 µM): 14.8% | viability, T/C (second compound 10 µM, first compound 0.001 µM): 17.9% | viability, T/C [21]: 26.6% | viability, T/C [22]: 15.5% | viability, T/C [23]: 15% | viability, T/C [24]: 11%

O=C(c1cc(Cc2n[nH]c(=O)c3ccccc23)ccc1F)N1CCN(C(=O)C2CC2)CC1 + Cc1c(S(C)(=O)=O)c(-c2cc(F)cc(N3CCN(c4ccc(NS(=O)(=O)c5ccc(NC(CCN6CCC(C(=O)OCCCP(=O)(O)O)CC6)CSc6ccccc6)c(S(=O)(=O)C(F)(F)F)c5)cc4)CC3)c2)c(-c2ccc(Cl)cc2)n1C(C)C
IC50 (second compound 0.0316 µM): > 10000 nM | IC50 (second compound 0.1 µM): > 10000 nM | IC50 (second compound 0.316 µM): 786 nM | IC50 (second compound 1 µM): < 31.6 nM | IC50 (second compound 3.16 µM): < 31.6 nM | IC50 (second compound 10 µM): < 31.6 nM | viability, T/C [3]: 77.8% | viability, T/C [4]: 86.6% | viability, T/C [25]: 87.5% | viability, T/C [26]: 83.3% | viability, T/C (second compound 0.0316 µM, first compound 3.16 µM): 75.6% | viability, T/C (second compound 0.0316 µM, first compound 10 µM): 76.8% | viability, T/C [7]: 88.4% | viability, T/C [8]: 71.9% | viability, T/C [27]: 64% | viability, T/C [28]: 62.6% | viability, T/C (second compound 0.1 µM, first compound 3.16 µM): 60.7% | viability, T/C (second compound 0.1 µM, first compound 10 µM): 54% | viability, T/C [11]: 56.4% | viability, T/C [12]: 61.7% | viability, T/C [29]: 52.6% | viability, T/C [30]: 48.6% | viability, T/C (second compound 0.316 µM, first compound 3.16 µM): 41.7% | viability, T/C (second compound 0.316 µM, first compound 10 µM): 35% | viability, T/C [15]: 41% | viability, T/C [16]: 34.6% | viability, T/C [31]: 31.1% | viability, T/C [32]: 30.1% | viability, T/C (second compound 1 µM, first compound 3.16 µM): 32.4% | viability, T/C (second compound 1 µM, first compound 10 µM): 27.2% | viability, T/C [19]: 23.3% | viability, T/C [20]: 19.1% | viability, T/C [33]: 17.1% | viability, T/C [34]: 19.3% | viability, T/C (second compound 3.16 µM, first compound 3.16 µM): 16% | viability, T/C (second compound 3.16 µM, first compound 10 µM): 13.4% | viability, T/C [23]: 14.4% | viability, T/C [24]: 15.4% | viability, T/C [35]: 11.7% | viability, T/C [36]: 13% | viability, T/C (second compound 10 µM, first compound 3.16 µM): 10% | viability, T/C (second compound 10 µM, first compound 10 µM): 9.06%

O=C(c1ccc(F)c(F)c1Nc1ccc(I)cc1F)N1CC(O)([C@@H]2CCCCN2)C1 + Cc1c(S(C)(=O)=O)c(-c2cc(F)cc(N3CCN(c4ccc(NS(=O)(=O)c5ccc(NC(CCN6CCC(C(=O)OCCCP(=O)(O)O)CC6)CSc6ccccc6)c(S(=O)(=O)C(F)(F)F)c5)cc4)CC3)c2)c(-c2ccc(Cl)cc2)n1C(C)C
IC50 (second compound 0.0316 µM): 257 nM | IC50 (second compound 0.1 µM): 166 nM | IC50 (second compound 0.316 µM): < 3.16 nM | IC50 (second compound 1 µM): < 3.16 nM | IC50 (second compound 3.16 µM): < 3.16 nM | IC50 (second compound 10 µM): < 3.16 nM | viability, T/C [1]: 78.6% | viability, T/C [2]: 83.5% | viability, T/C [3]: 97.3% | viability, T/C [4]: 85% | viability, T/C [25]: 42.2% | viability, T/C [26]: 26.7% | viability, T/C [5]: 79.8% | viability, T/C [6]: 69.1% | viability, T/C [7]: 84.2% | viability, T/C [8]: 59.5% | viability, T/C [27]: 35.3% | viability, T/C [28]: 17.9% | viability, T/C [9]: 47.8% | viability, T/C [10]: 46.7% | viability, T/C [11]: 43.1% | viability, T/C [12]: 36.8% | viability, T/C [29]: 20.2% | viability, T/C [30]: 5.24% | viability, T/C [13]: 35.3% | viability, T/C [14]: 39.4% | viability, T/C [15]: 29.7% | viability, T/C [16]: 20.5% | viability, T/C [31]: 6.12% | viability, T/C [32]: 1.37% | viability, T/C [17]: 19.1% | viability, T/C [18]: 25% | viability, T/C [19]: 19.6% | viability, T/C [20]: 6.55% | viability, T/C [33]: 1.36% | viability, T/C [34]: 0.4% | viability, T/C [21]: 14.6% | viability, T/C [22]: 11.5% | viability, T/C [23]: 7.74% | viability, T/C [24]: 3.48% | viability, T/C [35]: 1.23% | viability, T/C [36]: 2.45%
